Results from patent US12384751B2, “Allosteric activators of the ALPHA1A-adrenergic receptor” (The Cleveland Clinic Foundation, priority 2019, dated 2025).

Molecular target: T1, α1A-AR (Homo sapiens, UniProt P35348)
T1 sequence (P35348 1-466): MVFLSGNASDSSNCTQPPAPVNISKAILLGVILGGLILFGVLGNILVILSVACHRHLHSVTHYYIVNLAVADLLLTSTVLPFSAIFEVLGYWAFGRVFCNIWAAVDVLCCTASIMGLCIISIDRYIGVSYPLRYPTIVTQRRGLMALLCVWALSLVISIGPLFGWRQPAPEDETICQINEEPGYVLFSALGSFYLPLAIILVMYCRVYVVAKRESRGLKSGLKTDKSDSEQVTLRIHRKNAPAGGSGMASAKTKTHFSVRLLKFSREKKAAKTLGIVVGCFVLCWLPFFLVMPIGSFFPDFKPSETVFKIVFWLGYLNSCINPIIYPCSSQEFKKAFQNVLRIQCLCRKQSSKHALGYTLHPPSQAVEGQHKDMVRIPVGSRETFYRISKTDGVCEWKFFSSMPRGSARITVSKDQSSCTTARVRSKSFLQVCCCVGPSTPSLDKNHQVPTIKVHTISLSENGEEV
Assay: Effect of compound on binding affinity of norepinephrine, epinephrine or other ligands at α1A-AR
Set-up: expressed in transfected cells; host or cells: Rat-1 fibroblast cells
Procedure: Competition binding assays: These compounds were characterized for their ligand binding properties at the α1-AR subtypes. The binding affinities of Compounds 1-10 were determined in a series of competition-binding experiments with the α1-AR-selective antagonist [^125I]HEAT as the radioligand. Assays were performed in duplicate in HEM buffer, in a total assay volume of 1000 μl. Radioligand binding assays are composed of 5 ug of membranes, harvested from Rat-1 fibroblast cells expressing only one of the alpha1-AR subtypes, HEM buffer containing GTP (composed of 20 mM HEPES, pH 7.4, 1.4 mM EGTA, 12.5 mM MgCl2, pH to 7.4), 0.5 mM GTP, 35-80 pM^125I-HEAT, and various doses of norepinephrine or epinephrine and incubated with shaking at 25° C. for 1-2 hours. The above conditions will convert all the conformations of the receptor into a single low affinity site. To show both high and low affinity sites of the receptor (typically seen with GPCR agonists), the GTP is removed from the binding buffer. Nonspecific binding was determined experimentally in the presence of 10^−4 M phentolamine. Unbound radioactivity was separated from membrane-bound radioactivity by filtration through Whatman GF/C filter paper. Filters are washed five times with 5 ml of cold HEM buffer containing 0.5 mMGTP (if added to the binding buffer but not if it was not added to the binding buffer). Bound radioactivity remaining on the filters was counted on an ICN gamma counter operating at 79.8% efficiency. Data are analyzed using Graphpad Prism.
To determine the effects of compounds 1-10 on the binding affinity of norepinephrine or epinephrine, the competition binding assay was repeated as above with one dose of each individual compound (i.e. 10^−5M) added to each concentration point. Data are normalized to the norepinephrine or epinephrine binding curve alone without the addition of the compound to measure its effect on binding.

Compound: CC(C)Cc1c(OCC2=NCCN2)cccc1N(C)S(C)(=O)=O [Compound 3, N-[3-(4,5-Dihydro-1H-imidazol-2-ylmethoxy)-2-isobutyl-phenyl]-N-methyl-methanesulfonamide]
- effect on binding affinity of epinephrine at the α1A-AR (10^−5M (highest dose tested)): no effect
- effect on binding affinity of norepinephrine at the α1A-AR (fixed dose of compound, 10^−5M to 10^−9M): increasing the affinity of norepinephrine in a dose-specific manner
